# Measurements published in the NIST ThermoML archive (doi:10.1016/j.jct.2018.12.014).
# ± gives the expanded uncertainty stated by the source.
# Legend:
# [1] = 101 kPa, Liquid, Vibrating tube method
# [2] = refractive index (Na D-line) (dimensionless); conditions: 101 kPa, Liquid, Standard Abbe refractometry
# [3] = wn = mass fraction of the nth substance listed; conditions: 101 kPa, Liquid, Vibrating tube method, w2 = 0
# [4] = refractive index (Na D-line) (dimensionless); wn = mass fraction of the nth substance listed; conditions: 101 kPa, Liquid, Standard Abbe refractometry, w2 = 0
structure (smiles),measurement,setting,value
CN(CCO)CCO [N-methyldiethanolamine],mass density,[1]; 293.15 K,1040.31 ± 8.4 kg/m3
same,mass density,[1]; 298.15 K,1036.42 ± 8.3 kg/m3
same,mass density,[1]; 303.15 K,1032.55 ± 8.3 kg/m3
same,mass density,[1]; 308.15 K,1028.7 ± 8.3 kg/m3
same,mass density,[1]; 313.15 K,1025.14 ± 8.2 kg/m3
same,mass density,[1]; 318.15 K,1021.34 ± 8.2 kg/m3
same,mass density,[1]; 323.15 K,1017.55 ± 8.2 kg/m3
same,mass density,[1]; 328.15 K,1013.89 ± 8.2 kg/m3
same,mass density,[1]; 333.15 K,1010.07 ± 8.1 kg/m3
same,mass density,[1]; 338.15 K,1006.37 ± 8.1 kg/m3
same,mass density,[1]; 343.15 K,1002.33 ± 8.1 kg/m3
same,mass density,[1]; 348.15 K,998.62 ± 8 kg/m3
same,mass density,[1]; 353.15 K,995.05 ± 8 kg/m3
same,refractive index,[2]; 293.15 K,1.46942 ± 0.0042
same,refractive index,[2]; 298.15 K,1.46732 ± 0.0042
same,refractive index,[2]; 303.15 K,1.46498 ± 0.0042
same,refractive index,[2]; 308.15 K,1.46285 ± 0.0042
same,refractive index,[2]; 313.15 K,1.46099 ± 0.0042
same,refractive index,[2]; 318.15 K,1.45879 ± 0.0042
same,refractive index,[2]; 323.15 K,1.4568 ± 0.0042
same,refractive index,[2]; 328.15 K,1.45461 ± 0.0042
same,refractive index,[2]; 333.15 K,1.45252 ± 0.0042
same,refractive index,[2]; 338.15 K,1.45042 ± 0.0042
same,refractive index,[2]; 343.15 K,1.44855 ± 0.0042
CN(CCO)CCO [N-methyldiethanolamine] + C[P+](c1ccccc1)(c1ccccc1)c1ccccc1.[Br-],mass density,[3]; 293.15 K,1040.31 ± 8.4 kg/m3
same,mass density,[3]; 298.15 K,1036.42 ± 8.3 kg/m3
same,mass density,[3]; 303.15 K,1032.55 ± 8.3 kg/m3
same,mass density,[3]; 308.15 K,1028.7 ± 8.3 kg/m3
same,mass density,[3]; 313.15 K,1025.14 ± 8.2 kg/m3
same,mass density,[3]; 318.15 K,1021.34 ± 8.2 kg/m3
same,mass density,[3]; 323.15 K,1017.55 ± 8.2 kg/m3
same,mass density,[3]; 328.15 K,1013.89 ± 8.2 kg/m3
same,mass density,[3]; 333.15 K,1010.07 ± 8.1 kg/m3
same,mass density,[3]; 338.15 K,1006.37 ± 8.1 kg/m3
same,mass density,[3]; 343.15 K,1002.33 ± 8.1 kg/m3
same,mass density,[3]; 348.15 K,998.62 ± 8 kg/m3
same,mass density,[3]; 353.15 K,995.05 ± 8 kg/m3
same,refractive index,[4]; 293.15 K,1.46942 ± 0.0042
same,refractive index,[4]; 298.15 K,1.46732 ± 0.0042
same,refractive index,[4]; 303.15 K,1.46498 ± 0.0042
same,refractive index,[4]; 308.15 K,1.46285 ± 0.0042
same,refractive index,[4]; 313.15 K,1.46099 ± 0.0042
same,refractive index,[4]; 318.15 K,1.45879 ± 0.0042
same,refractive index,[4]; 323.15 K,1.4568 ± 0.0042
same,refractive index,[4]; 328.15 K,1.45461 ± 0.0042
same,refractive index,[4]; 333.15 K,1.45252 ± 0.0042
same,refractive index,[4]; 338.15 K,1.45042 ± 0.0042
same,refractive index,[4]; 343.15 K,1.44855 ± 0.0042
